Tests used:
Format in all cases: binding, sheep
[1] = system: Antibody to Immunogen II; assay: Competitive ELISA (Example 36), antibody RS1833B12, tracer ESC4555/LK959, standard JWH-018
Method in brief: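 Sheep antiserum IgG coated on plates overnight at 4°C; standard or cross-reactant competes with hapten-HRP conjugate in Tris buffer pH 7.2 for 1 h at 25°C.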

[2] = system: antiserum raised to Immunogen II (Hapten B-BTG); assay: Competitive ELISA microtiter plate assay (Example 19), antiserum raised to Immunogen II, Hapten A-HRP conjugate as detection reagent
Experimental: (§1) Aqueous solutions of the immunogens prepared in examples 5 and 13 were formulated with Freund's Complete Adjuvant (FCA) to form emulsions consisting of 2mg/ml Immunogen I and 2mg/ml of Immunogen II in 50%(v/v) FCA. Three sheep were immunised with each emulsion (1° immunisations), 0.25ml being intramuscularly injected at four sites in the rump of each animal. Subsequent immunisations (boosts 2-8) contained 1mg/ml Immunogen I and 1mg/ml Immunogen II. All boosts were emulsified in 50%(v/v) Freund's Incomplete Adjuvant (FIA) and administered to the appropriate sheep in the same manner as the 1° immunisations, at monthly intervals. Blood sampling took place 7-14 days after each boost. Each sample was processed to produce antiserum, which was further purified by caprylic acid and ammonium sulphate precipitation to yield an immunoglobulin (Ig) fraction. The Ig fraction was evaluated by competitive ELISA microtiter plate assay, as described in example 19 below.
(§2) Example 19: Development of competitive ELISA for JWH synthetic cannabinoids and metabolites. • (a) The wells of an enhanced binding 96 well polystyrene microtiter plate were coated with the Ig fraction of the antiserum raised to Immunogen I (Hapten A-BTG - example 5) and diluted in 10mM Tris, pH8.5 (125µl/well). The appropriate antibody coating concentration was determined using standard ELISA checkerboard techniques. The plate was incubated for 2 hours at 37°C, washed 4 times over a 10-minute period with Tris buffered saline containing Tween 20 (TBST) and tapped dry. Standard solutions of JWH synthetic cannabinoids, metabolites and selected molecules were prepared in TBST and 50µl of each was added to the appropriate wells. 75µl of conjugate (Hapten A-HRP) diluted in Tris buffer containing EDTA, D-mannitol, sucrose, thimerosal and BSA, was added to each of the wells. The appropriate dilution of conjugate was also determined using standard ELISA checkerboard techniques. The plate was incubated at 25°C for 1 hour. The excess unbound conjugate was removed by washing 6 times over a 10-minute period with TBST and tapped dry. 125µl of tetramethylbenzedine (TMB) substrate solution was added to each well of the plate that was then incubated for 15-20 minutes in the dark at room temperature. The reaction was terminated by addition of 125µl of 0.2M sulphuric acid to each well. The absorbance was then measured at 450nm using a microtiter plate reader. Employing each series of standards, calibration curves were generated and these were used to determine the specificity of the immunoassay for the JWH synthetic cannabinoids, metabolites and selected molecules. The results of this study are presented in Tables 1 to 3, cross-reactivity being calculated according to the following formula: %CR = […] /IC50,CR X 100 [formula] Where %CR is the percentage cross-reactivity, IC50, YWH-018 is the concentration of JWH-018 that causes 50% displacement of signal and IC50, CR is the concentration of JWH synthetic cannabinoid/metabolite/selected molecule that causes 50% displacement of signal.
Table 1: Data generated from a competitive microtiter plate assay for JWH synthetic cannabinoids and metabolites, employing antiserum raised to Immunogen II (Hapten B-BTG) and conjugate (Hapten A-HRP) as detection reagent. (b) In a similar manner to that described in Example 19(a), the wells of a 96 well microtiter plate were coated with the Ig fraction of the antiserum raised to Immunogen II ([…]). Conjugate (Hapten A-HRP) was employed as a detection reagent.

[3] = system: antibodies raised to Immunogens I & II; assay: Competitive ELISA (Example 19), sensitivity and cross-reactivity of selected molecules, one result for both antibodies; details: result in words
Experimental: as §1, §2
Table 2: Data generated from a competitive microtiter plate assay for JWH synthetic cannabinoids and metabolites, employing antiserum raised to Immunogen I (Hapten A-BTG) and conjugate (Hapten A-HRP) as detection reagent. • (c) The resulting competitive ELISA for synthetic cannabinoids and metabolites was further employed to analyse urine and serum samples from 20 patients (Table 3). • (d) The resulting competitive ELISA for synthetic cannabinoids and metabolites was also employed to test for the 5-fluoropentyl derivative of JWH-018, (1-(5-fluoropentyl)indol-3yl (1-naphthyl) methanone (Table 4).

[4] = Cross-reactants at 100 ng/ml, Antibody to Immunogen II
[5] = Table 1, 40 ng/ml highest concentration tested
[6] = Table 1, CR based on 100% for JWH-018

Row | Structure (SMILES) | %B/B0 [1, 4] | % Cross-reactivity [2, 6] | IC50 [2, 5] | other results
1 | O=C(c1cccc2ccccc12)c1c[nH]c2ccccc12 [3-(1-naphthoyl)-1H-Indole, 3-(1-naphthoyl)-1H-indole] | 99.18% | << 5.28% | – | IC50 ng/ml [2, 5]: >> 40 ng/ml
2 | CCCCCn1cc(C(=O)c2cccc3ccccc23)c2ccc(O)cc21 [JWH-018 6-hydroxyindole metabolite] | 24.39% | 215.31% | 0.98 ng/mL | –
3 | O=C(c1cccc2ccccc12)c1cn(CCN2CCOCC2)c2ccccc12 [WIN 55,225 (other name JWH-200), JWH-200] | 54.02% | 127.11% | 1.66 ng/mL | –
4 | O=C(O)CCCCn1cc(C(=O)c2cccc3ccccc23)c2ccccc21 [JWH-018 N-pentanoic acid metabolite] | 85.61% | 38.50% | 5.48 ng/mL | binding / cross-reaction with antibodies raised from Immunogens I and II [3]: bind
5 | CCCCCn1cc(C(=O)c2cccc3ccccc23)c2ccccc21 [JWH-018] | 9.29% | 100.00% | 2.11 ng/mL | %B/B0 ([1]; JWH-018 standard 0.625 ng/ml): 68%; %B/B0 ([1]; JWH-018 standard 1.25 ng/ml): 53%; %B/B0 ([1]; JWH-018 standard 2.5 ng/ml): 34%; %B/B0 ([1]; JWH-018 standard 5 ng/ml): 25%; %B/B0 ([1]; JWH-018 standard 10 ng/ml): 17%; %B/B0 ([1]; JWH-018 standard 20 ng/ml): 13%; %B/B0 ([1]; JWH-018 standard 40 ng/ml): 10%; IC50 ([1]; Table 3a standard curve, standard concentration which produces 50% B/B0): 1.333 ng/mL; IC50 ([2]; first Table 4, Immunogen II): 1.97 ng/mL; % Cross-reactivity ([2]; first Table 4, Immunogen II, JWH-018 = 100): 100.00%
6 | CCCCCn1cc(C(=O)c2ccc(Cl)c3ccccc23)c2ccccc21 [JWH-398] | 30.31% | 12.02% | 17.55 ng/mL | binding / cross-reaction with antibodies raised from Immunogens I and II [3]: bind
7 | CCCCn1cc(C(=O)c2cccc3ccccc23)c2ccccc21 [JWH-073] | 15.24% | 135.26% | 1.56 ng/mL | –
8 | O=C(c1cccc2ccccc12)c1cn(CCCCCO)c2ccccc12 [JWH-018 N-(5-hydroxypentyl) metabolite] | 53.38% | 183.48% | 1.15 ng/mL | –
9 | CCCCCn1cc(C(=O)c2cccc3ccccc23)c2cc(O)ccc21 [JWH-018 5-hydroxyindole metabolite] | 12.14% | 130.25% | 1.62 ng/mL | –
10 | CCCCCn1cc(C(=O)c2cccc3ccccc23)c2c(O)cccc21 [JWH-018 4-hydroxyindole metabolite] | 29.49% | 23.03% | 9.16 ng/mL | –
